Bounds are passed on as bounds.

T1 sequence (P80457 whole entry): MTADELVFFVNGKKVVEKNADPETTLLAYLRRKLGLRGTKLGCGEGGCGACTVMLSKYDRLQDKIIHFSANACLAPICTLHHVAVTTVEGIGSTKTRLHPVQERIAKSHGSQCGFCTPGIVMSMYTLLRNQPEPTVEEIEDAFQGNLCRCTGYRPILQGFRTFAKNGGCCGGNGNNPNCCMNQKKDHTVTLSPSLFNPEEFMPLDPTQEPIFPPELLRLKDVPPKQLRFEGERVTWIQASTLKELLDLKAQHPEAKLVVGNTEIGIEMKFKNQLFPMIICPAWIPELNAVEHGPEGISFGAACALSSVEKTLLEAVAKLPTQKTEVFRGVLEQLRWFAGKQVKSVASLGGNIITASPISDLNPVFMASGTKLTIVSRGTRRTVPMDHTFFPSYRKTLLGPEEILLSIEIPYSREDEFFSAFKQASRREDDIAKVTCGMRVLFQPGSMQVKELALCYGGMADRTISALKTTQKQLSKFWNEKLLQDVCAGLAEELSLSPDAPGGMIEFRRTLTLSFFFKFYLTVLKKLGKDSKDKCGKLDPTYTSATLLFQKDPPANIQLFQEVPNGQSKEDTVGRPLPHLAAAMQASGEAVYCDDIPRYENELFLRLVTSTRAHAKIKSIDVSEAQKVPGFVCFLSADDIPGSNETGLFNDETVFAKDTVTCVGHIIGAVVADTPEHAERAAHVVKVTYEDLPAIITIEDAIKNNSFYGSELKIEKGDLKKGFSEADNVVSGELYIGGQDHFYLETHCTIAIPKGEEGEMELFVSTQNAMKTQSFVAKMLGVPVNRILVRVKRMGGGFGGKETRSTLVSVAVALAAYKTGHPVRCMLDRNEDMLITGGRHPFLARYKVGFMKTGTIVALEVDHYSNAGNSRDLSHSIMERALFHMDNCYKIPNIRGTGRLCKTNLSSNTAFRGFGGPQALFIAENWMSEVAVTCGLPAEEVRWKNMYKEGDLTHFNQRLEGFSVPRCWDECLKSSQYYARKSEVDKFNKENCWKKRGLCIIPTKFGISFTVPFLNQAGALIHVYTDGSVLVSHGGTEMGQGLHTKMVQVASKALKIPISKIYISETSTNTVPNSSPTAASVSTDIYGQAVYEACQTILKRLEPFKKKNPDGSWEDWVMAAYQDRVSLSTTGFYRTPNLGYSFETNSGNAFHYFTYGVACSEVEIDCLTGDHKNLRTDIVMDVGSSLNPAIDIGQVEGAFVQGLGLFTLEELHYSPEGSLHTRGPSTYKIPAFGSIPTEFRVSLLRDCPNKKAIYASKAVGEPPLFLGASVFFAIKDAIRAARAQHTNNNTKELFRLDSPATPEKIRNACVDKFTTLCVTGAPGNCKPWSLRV
T2 sequence (P27487 whole entry): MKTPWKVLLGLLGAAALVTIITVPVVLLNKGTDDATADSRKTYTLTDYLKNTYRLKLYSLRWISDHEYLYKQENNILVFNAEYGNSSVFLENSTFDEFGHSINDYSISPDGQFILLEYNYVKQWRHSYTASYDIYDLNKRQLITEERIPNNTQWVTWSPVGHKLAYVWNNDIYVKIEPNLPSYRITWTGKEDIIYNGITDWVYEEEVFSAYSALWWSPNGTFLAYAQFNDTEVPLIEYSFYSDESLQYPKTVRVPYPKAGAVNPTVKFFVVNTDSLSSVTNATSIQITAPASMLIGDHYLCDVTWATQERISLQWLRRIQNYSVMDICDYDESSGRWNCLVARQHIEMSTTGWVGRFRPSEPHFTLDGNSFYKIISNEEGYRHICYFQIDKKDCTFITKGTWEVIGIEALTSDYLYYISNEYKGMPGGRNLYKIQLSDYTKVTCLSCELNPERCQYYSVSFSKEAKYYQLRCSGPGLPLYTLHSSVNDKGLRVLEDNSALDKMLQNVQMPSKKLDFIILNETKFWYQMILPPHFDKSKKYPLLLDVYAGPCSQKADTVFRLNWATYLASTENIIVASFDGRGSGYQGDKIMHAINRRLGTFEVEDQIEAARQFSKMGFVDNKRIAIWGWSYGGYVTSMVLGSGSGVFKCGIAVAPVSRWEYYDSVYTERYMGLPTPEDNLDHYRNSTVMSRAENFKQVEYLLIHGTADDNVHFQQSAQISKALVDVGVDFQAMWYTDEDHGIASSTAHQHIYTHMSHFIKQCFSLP

Test system in the first experiment: not listed separately
Description: DPPH radical scavenging assay. The settings on record: 30 min, 517 nm, mean ± SEM (n = 3). As for the experimental part:
Each sample's stock solution was diluted to final concentrations of 1000–0.4889 μg/mL in MeOH. A total of 1 mL of a 0.3 mM DPPH methanolic solution was added to 2.5 mL of sample solution of different concentrations and allowed to react at room temperature. After 30 min, the absorbance (Abs) values were measured at 517 nm with a microplate reader (Tecan NanoQuant Infinite M200, Switzerland) and converted into the percentage antioxidant activity using the following equation described previously: (1) % antioxidant activity=100−Abssample−Abssample blank/Abscontrol−Abscontrol blank×100. MeOH + compound solution was used as a blank, while DPPH solution plus MeOH was used as a negative control. The positive controls were DPPH solution plus 1 mM ascorbic acid. The IC50 values were calculated by linear regression of plots. The average percent of scavenging capacity was taken from three replicates.
Background: DPPH is a stable violet radical that fades when it is reduced.
Turning to `Oc1cc(O)c2c(c1)O[C@H](c1ccc(O)c(O)c1)[C@@H](O)C2` [(+)-Catechin], the “IC50 DPPH” value is 14.34 ± 1.55^EF µg/ml.
For `Oc1cc(O)c2c(c1)O[C@H](c1ccc(O)c(O)c1)[C@H](O)C2` [(−)-Epicatechin], the “IC50 DPPH” value is 9.92 ± 0.33^F µg/ml.
In the case of `CC(=O)Oc1cc(OC(C)=O)c2c(=O)cc(-c3ccccc3)oc2c1OC(C)=O` [Acetate (norwogonin), 5,7,8-Triacetoxyflavone], the “IC50 DPPH” value is recorded as >100^B µg/ml.
`O=C1O[C@H]([C@@H](O)CO)C(O)=C1O` [Ascorbic acid, ascorbic acid, reference compound]: the “IC50 DPPH” value is 4.75 ± 0.91^GHa µg/ml.

Test system in another experiment: not listed separately
As to the kind of experiment: ABTS+ radical scavenging assay. Conditions: 734 nm, mean ± SEM (n = 3). The procedure:
An improved ABTS^+ radical decolorization assay was carried out involving direct production of the blue/green ABTS^+ chromophore through the reaction between ABTS and potassium persulfate. Addition of antioxidant to the preformed radical cation reduces it to ABTS to an extent on a time scale depending on the antioxidant activity, the concentration of the antioxidant, and the duration of the reaction. 1 ml ABTS was dissolved in water to make 7 mM concentration of the resultant solution. […] The resultant reaction mixture was allowed to stand in the dark at room temperature for 12–16 h before being used. The ABTS^+ radical solution was diluted with MeOH to an absorbance of 0.7 (±0.02) at 734 nm. Then, 100 μl of sample at various concentrations (1000–0.4889 μg/mL) was mixed with 100 μL of diluted ABTS^+ radical. Each concentration was analyzed in triplicate and the percentage decrease of absorbance at 734 nm with a microplate reader (Tecan NanoQuant Infinite M200, Switzerland) was calculated for each point and the antioxidant capacity of the tested compounds was expressed as percent inhibition (%). The radical scavenging activity of the compounds was measured according to the following equation [29]:(2) % inhibition=Acontrol−Asample/Acontrol×100. IC50 values were calculated by linear regression of plots, and the average percent of scavenging capacity was taken from three replicates. Trolox was used as a standard in comparison for the determination of the antioxidant activity of the flavonoids.
Take `Oc1cc(O)c2c(c1)O[C@H](c1ccc(O)c(O)c1)[C@@H](O)C2` [(+)-Catechin]: the “IC50 ABTS+” value is reported as 0.62 ± 0.05^G µg/ml.
The same measure, in the same setting: then `Oc1cc(O)c2c(c1)O[C@H](c1ccc(O)c(O)c1)[C@H](O)C2` [(−)-Epicatechin], with 0.70 ± 0.08^G µg/ml; and `CC(=O)Oc1cc(OC(C)=O)c2c(=O)cc(-c3ccccc3)oc2c1OC(C)=O` [Acetate (norwogonin), 5,7,8-Triacetoxyflavone], with 78.99 ± 66.5^C µg/ml.

Test system in the next experiment: not listed separately
Description: Rapid screening of radical scavenging activity by dot blot assay (DPPH staining). Conditions: silica sheet stained with DPPH in MeOH, dilutions from 1000 μg/mL. The procedure: An aliquot (20 μL) of each dilution of each group was carefully loaded on a […] TLC plate and allowed to dry for 10 min. Drops of each sample were loaded in the order of decreased concentration along the 16 columns. The staining of the silica plate was based on the procedure of Soler-Rivas et al.. […] The intensity of the yellow color depends upon the amount and nature of radical scavenger present in the flavonoids.
In the case of `Oc1cc(O)c2c(c1)O[C@H](c1ccc(O)c(O)c1)[C@@H](O)C2` [(+)-Catechin], the “radical scavenging activity by dot blot (intensity of yellow spots)” value is “strong radical scavenging activity”.
Turning to `Oc1cc(O)c2c(c1)O[C@H](c1ccc(O)c(O)c1)[C@H](O)C2` [(−)-Epicatechin], the “radical scavenging activity by dot blot (intensity of yellow spots)” value is reported as “strong radical scavenging activity”.
The same measure, in the same setting: then `CC(=O)Oc1cc(OC(C)=O)c2c(=O)cc(-c3ccccc3)oc2c1OC(C)=O` [Acetate (norwogonin), 5,7,8-Triacetoxyflavone], with “did not show any spot”.

A further experiment has as its target T1, xanthine oxidase from buttermilk (Bos taurus, UniProt P80457).
T1 construct: 0.3 U/mL enzymes (xanthine oxidase from buttermilk); purchased Sigma-Aldrich (Singapore); host or cells: buttermilk (natural source)
Description: Xanthine oxidase inhibitory assay (XOI). The experiment is classed as biochemical. Conditions: discussion. The procedure:
XO catalyzes the oxidation of hypoxanthine to xanthine and subsequently to uric acid. The inhibition of XO reduces both vascular oxidative stress and circulating levels of uric acid. This assay is based on the fact that the superoxide anions are generated by the xanthine. The xanthine oxidase inhibitory activity was measured spectrophotometrically (Tecan NanoQuant Infinite M200, Switzerland) at 295 nm under aerobic condition with slight modification. The reaction mixture contained 50 mM phosphate buffer (pH 7.5), 0.15 mM xanthine (substrate), and 0.3 U/mL enzymes (xanthine oxidase from buttermilk). Samples were prepared by dissolving 1 mg in 5% DMSO in MeOH which gives sample concentration of 144.0 μg/mL in assay. […] The absorption increment at 295 nm indicates the formation of […] of uric acid/min at 25°C. […] All determination was done in triplicate and half maximal concentration (IC50) values were calculated from the percentage of inhibition. XO inhibition activity was expressed as the percentage inhibition of XO as follows:(3) % of inhibition=AbsA−B−C−D/AbsA−B×100, where A is the negative control with B as the blank of A which is without the enzyme and the sample while C is the activity of the sample with enzyme with D as the blank of the sample without enzyme.
Regarding `Oc1cc(O)c2c(c1)O[C@H](c1ccc(O)c(O)c1)[C@@H](O)C2` [(+)-Catechin], the “xanthine oxidase inhibitory effect (in words)” value is “inactive”.
The same measure, in the same setting: then `Oc1cc(O)c2c(c1)O[C@H](c1ccc(O)c(O)c1)[C@H](O)C2` [(−)-Epicatechin], with “inactive”.

Test system in a further experiment: not listed separately
Description: Ferric reducing antioxidant power (FRAP).
Conditions: not given
As for the experimental part:
This assay was based on the reduction of the ferric tripyridyltriazine (Fe III-TPTZ) complex to the ferrous ion (Fe II) at a low pH forming an intense blue color. In the FRAP assay, compounds that are rich in antioxidant effect exert their action by breaking the free radical chain by donating a hydrogen atom. Briefly, ferric reducing antioxidant power (FRAP) reagent (2.5 mL of a 10 mM TPTZ solution in 40 mM HCl, 2.5 mL of 20 mM FeCl3, and 25 mL of 0.1 M acetate buffer pH 3.6) was prepared and incubated for 10 min at 37°C. Then 20 μL of each compound and ascorbic acid (standard) and 40 μL of FRAP reagent were added to 140 μL of distilled water in a 96-well plate producing a blue-colored solution. The solutions were kept at room temperature for 20 min in the dark and then measured at 593 nm with a microplate reader (Tecan, Switzerland) using a reagent blank composed of 40 μL of FRAP reagents in 200 μL of distilled water. A calibration curve was prepared with a serial dilution of ascorbic acid (standard). The total antioxidant capacity was calculated by interpolating the measured absorbance of the calibration curve and expressed as ascorbic acid equivalents. The results were corrected for dilution and expressed as AAE μg of ascorbic acid/g.
Consider `Oc1cc(O)c2c(c1)O[C@H](c1ccc(O)c(O)c1)[C@@H](O)C2` [(+)-Catechin], for which the FRAP antioxidant capacity is 152.07 ± 1.95 AAE μg of ascorbic acid/g.
Regarding `Oc1cc(O)c2c(c1)O[C@H](c1ccc(O)c(O)c1)[C@H](O)C2` [(−)-Epicatechin], the FRAP antioxidant capacity is recorded as 152.14 ± 7.30 AAE μg of ascorbic acid/g.
On the same count and under the same terms, with `CC(=O)Oc1cc(OC(C)=O)c2c(=O)cc(-c3ccccc3)oc2c1OC(C)=O` [Acetate (norwogonin), 5,7,8-Triacetoxyflavone] the figure was 39.63 ± 1.01 AAE μg of ascorbic acid/g; with `O=C1O[C@H]([C@@H](O)CO)C(O)=C1O` [Ascorbic acid, ascorbic acid, reference compound], 114.58 AAE μg of ascorbic acid/g.

The same experiment, now with this note: ascorbic acid equivalent; mean ± SEM (n = 3); Table 2.
As for `Oc1cc(O)c2c(c1)O[C@H](c1ccc(O)c(O)c1)[C@@H](O)C2` [(+)-Catechin], the “FRAP (AAE μg)” value is 148.12 ± 4.40^C AAE μg.
The same measure, in the same setting: then `Oc1cc(O)c2c(c1)O[C@H](c1ccc(O)c(O)c1)[C@H](O)C2` [(−)-Epicatechin], with 152.07 ± 1.95^C AAE μg.
On to `CC(=O)Oc1cc(OC(C)=O)c2c(=O)cc(-c3ccccc3)oc2c1OC(C)=O` [Acetate (norwogonin), 5,7,8-Triacetoxyflavone], for which the “FRAP (AAE μg)” value is listed as 39.63 ± 1.01^E AAE μg.
Same read-out and setting: with `O=C1O[C@H]([C@@H](O)CO)C(O)=C1O` [Ascorbic acid, ascorbic acid, reference compound] the figure was 114.58 ± 0.27^Da AAE μg.

The next experiment concerns the target T2, DPP-4 (Homo sapiens, UniProt P27487).
T2 construct: purchased Cayman (Michigan, USA)
As to the kind of experiment: Dipeptidyl peptidase IV (DPP-4) inhibitory assay. Conditions: Table 3; mean ± SEM (n = 3); NA: not active. Format: biochemical. As for the experimental part: Dipeptidyl peptidase (IV) inhibitors work by inhibiting the action of this enzyme, thereby prolonging the activity of incretins that play an important role in insulin secretion and blood glucose control regulation. DPP-4 inhibitory assay was performed as per the standard method (Cayman, USA). Firstly, 1 mg of sample was dissolved in 10% of DMSO and MeOH as the stock solution. For initial activity (100%), 10 μL of MeOH, 30 μL of diluted assay buffer, and 10 μL of diluted DPP-4 (Cayman, USA) were added to 96-well microplate. […] For background well, 10 μL of MeOH and 40 μL of diluted assay buffer were added. Then, 10 μL of prepared sample and 30 μL of diluted assay buffer were added with 10 μL of diluted DPP-4. After that, 50 μL of substrate solution was added to all wells to initiate the reaction and further incubated in the dark at 37°C for 30 min. Finally, plate was read at 360 nm of excitation wavelength and 465 nm of emission wavelength using fluorescence microplate reader (Perkin Elmer, Germany). All determinations were done in triplicate and half maximal concentration (IC50) values were calculated from the percentage of inhibition based on the linear regression analysis. The equation given below was applied to calculate the inhibitory activity (%):(5) Inhibitory activity%=Initial Activity−Sample/Initial Activity×100%.
For DPP-4 inhibitory assay, the reaction is based on the cleavage of the peptide bond by DPP releasing the free Gly-Pro-aminomethylcoumarin group, a fluorogenic substrate resulting in fluorescence excitation and emission.
In the case of `CC(=O)Oc1cc(OC(C)=O)c2c(=O)cc(-c3ccccc3)oc2c1OC(C)=O` [Acetate (norwogonin), 5,7,8-Triacetoxyflavone], the IC50 was more than 252 µM.

The term IC50 denotes the midpoint of a concentration-inhibition curve.

(Values after publication PMC5727842, “Antioxidant and Antidiabetic Effects of Flavonoids: A Structure-Activity Relationship Based Study” (BioMed Research International, 2017).)
